Assay results from paper PMC4230215, “Lipolytic Potential of Aspergillus japonicus LAB01: Production, Partial Purification, and Characterisation of an Extracellular Lipase” (BioMed Research International, 2014).

System: T1, extracellular lipase from A. japonicus LAB01
T1 construct: about 25 kDa on SDS-PAGE
Experiment: spectrophotometric p-nitrophenol release at […] nm, Michaelis-Menten hyperbola regression
Assay type: biochemical, Aspergillus japonicus
Conditions: Tris-HCl pH 8.0, 37 °C, Triton X-100 and gum arabic emulsion, 2-propanol; 0-1.4 mM substrate; partially purified enzyme; read-out: apparent KM

Km: 130 µM
Compound: CCCCCCCCCCCCCCCC(=O)Oc1ccc([N+](=O)[O-])cc1 [p-NPP, p-nitrophenyl palmitate]
